Source: ChEMBL document CHEMBL3751685, “Borrelidin Induces the Unfolded Protein Response in Oral Cancer Cells and Chop-Dependent Apoptosis” (ACS Med Chem Lett, 2015)
Activity calls are given as the source filed them. The rule behind the calls is not given here.

How the values were obtained:
[1] = molecular target: T1, Threonine--tRNA ligase 1, cytoplasmic (Homo sapiens) (UniProt P26639); assay: Inhibition of ThRS in human UMSCC1 cells assessed as increase in CHOP mRNA level at 5 uM after 6 hrs by RT-qPCR analysis; format: cell-based
T1 sequence (whole entry): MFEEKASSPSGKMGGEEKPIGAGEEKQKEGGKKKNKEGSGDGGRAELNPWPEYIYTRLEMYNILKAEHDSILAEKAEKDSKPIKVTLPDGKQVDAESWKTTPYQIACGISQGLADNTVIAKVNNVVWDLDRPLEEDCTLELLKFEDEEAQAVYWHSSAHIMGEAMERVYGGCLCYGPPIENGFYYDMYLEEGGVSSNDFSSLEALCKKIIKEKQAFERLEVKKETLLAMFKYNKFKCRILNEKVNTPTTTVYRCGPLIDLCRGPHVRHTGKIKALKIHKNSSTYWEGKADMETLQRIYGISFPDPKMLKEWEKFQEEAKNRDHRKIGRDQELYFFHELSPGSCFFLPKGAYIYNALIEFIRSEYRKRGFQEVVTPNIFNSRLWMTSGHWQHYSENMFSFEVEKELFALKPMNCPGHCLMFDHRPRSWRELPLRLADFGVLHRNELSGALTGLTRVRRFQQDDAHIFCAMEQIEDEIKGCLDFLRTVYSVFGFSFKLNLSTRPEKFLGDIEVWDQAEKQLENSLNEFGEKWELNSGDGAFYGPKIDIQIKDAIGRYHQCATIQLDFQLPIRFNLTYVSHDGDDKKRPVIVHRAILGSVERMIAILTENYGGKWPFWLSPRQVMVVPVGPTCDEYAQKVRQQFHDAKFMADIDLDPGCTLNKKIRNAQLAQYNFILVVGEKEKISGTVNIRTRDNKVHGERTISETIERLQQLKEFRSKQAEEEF

[2] = test system: UMSCC14A; assay: Inhibition of cell proliferation in human UMSCC14A cells for 24 hrs by Celltiter Glo assay; format: functional, cell-based
[3] = molecular target: T1, Threonine--tRNA ligase 1, cytoplasmic (Homo sapiens); assay: Inhibition of ThRS in human UMSCC1 cells assessed as increase in UPR-related gene expression at 10 uM by RT-PCR analysis; format: cell-based
[4] = test system: UMSCC23; assay: Inhibition of cell proliferation in human UMSCC23 cells for 24 hrs by Celltiter Glo assay; format: functional, cell-based
[5] = test system: UMSCC1; assay: Inhibition of cell proliferation in human UMSCC1 cells for 24 hrs by Celltiter Glo assay; format: functional, cell-based
[6] = molecular target: T1, Threonine--tRNA ligase 1, cytoplasmic (Homo sapiens); assay: Inhibition of ThRS in human UMSCC1 cells assessed as increase in XBP1 splicing by RT-PCR analysis; format: cell-based
[7] = molecular target: T1, Threonine--tRNA ligase 1, cytoplasmic (Homo sapiens); assay: Inhibition of ThRS in human UMSCC1 cells assessed as increase in apoptosis-related gene expression at 10 uM by RT-PCR analysis; format: cell-based
[8] = molecular target: T1, Threonine--tRNA ligase 1, cytoplasmic (Homo sapiens); assay: Inhibition of ThRS in human UMSCC1 cells assessed as increase in ATF3 mRNA level at 5 uM after 6 hrs by RT-qPCR analysis; format: cell-based
[9] = Cytotoxicity against HEK cells after 24 hrs by CelltiterGlo assay; format: cell-based; details: human, hek293, 24 h
[10] = molecular target: T1, Threonine--tRNA ligase 1, cytoplasmic (Homo sapiens); assay: Inhibition of ThRS in human UMSCC1 cells assessed as increase in ATF4 mRNA level at 5 uM after 6 hrs by RT-qPCR analysis; format: cell-based
[11] = molecular target: T1, Threonine--tRNA ligase 1, cytoplasmic (Homo sapiens); assay: Inhibition of ThRS in human UMSCC1 cells assessed as increase in DNA damaging-related gene expression at 10 uM by RT-PCR analysis; format: cell-based
[12] = test system: UMSCC1; assay: Effect on Bip/GRP78 mRNA level in human UMSCC1 cells at 5 uM after 6 hrs by RT-qPCR analysis; format: functional, cell-based
[13] = test system: MEF; assay: Inhibition of cell proliferation in mouse MEF cells expressing Atf4(-/-) after 16 hrs CelltiterGlo assay; format: functional, cell-based
[14] = molecular target: T2, Threonine--tRNA ligase 1, cytoplasmic (Mus musculus) (UniProt Q9D0R2); details: MEF, 5 uM
T2 sequence (whole entry): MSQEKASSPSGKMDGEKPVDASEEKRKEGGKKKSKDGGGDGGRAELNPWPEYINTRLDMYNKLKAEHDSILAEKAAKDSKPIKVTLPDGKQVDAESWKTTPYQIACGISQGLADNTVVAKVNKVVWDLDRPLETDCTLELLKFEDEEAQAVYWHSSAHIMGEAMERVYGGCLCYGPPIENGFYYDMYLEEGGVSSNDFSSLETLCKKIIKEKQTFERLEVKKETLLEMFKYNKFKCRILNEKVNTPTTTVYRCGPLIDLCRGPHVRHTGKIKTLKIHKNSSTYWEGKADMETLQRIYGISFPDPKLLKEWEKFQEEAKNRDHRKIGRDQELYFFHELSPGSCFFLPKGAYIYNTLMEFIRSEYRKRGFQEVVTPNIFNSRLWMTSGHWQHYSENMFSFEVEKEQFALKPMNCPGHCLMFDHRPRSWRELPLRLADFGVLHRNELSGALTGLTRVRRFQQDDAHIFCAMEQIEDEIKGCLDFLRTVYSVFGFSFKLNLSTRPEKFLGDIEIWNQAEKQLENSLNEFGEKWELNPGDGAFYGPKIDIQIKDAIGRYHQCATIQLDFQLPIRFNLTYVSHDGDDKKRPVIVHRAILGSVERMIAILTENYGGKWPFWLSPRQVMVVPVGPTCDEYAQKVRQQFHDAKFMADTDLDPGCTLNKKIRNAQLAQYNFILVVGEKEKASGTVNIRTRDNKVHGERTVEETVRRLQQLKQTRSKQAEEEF
Description: Inhibition of ThRs in mouse MEF cells expressing Gcn2 (-/-) assessed as effect on Chop level at 5 uM by immunoblot analysis

[15] = molecular target: T2, Threonine--tRNA ligase 1, cytoplasmic (Mus musculus); details: MEF, 5 uM; remark: listed apart in the source
Description: Inhibition of ThRs in mouse MEF cells expressing Gcn2 (-/-) assessed as effect on Gadd45beta mRNA level at 5 uM by RT-PCR analysis

[16] = molecular target: T2, Threonine--tRNA ligase 1, cytoplasmic (Mus musculus); details: MEF, 5 uM; remark: listed apart in the source
Description: Inhibition of ThRs in mouse MEF cells expressing Gcn2 (-/-) assessed as effect on Dr5 mRNA level at 5 uM by RT-PCR analysis

[17] = test system: MEF; assay: Inhibition of cell proliferation in mouse MEF cells expressing Chop(-/-) after 16 hrs Celltiter Glo assay; format: functional, cell-based
[18] = test system: A549; assay: Inhibition of cell proliferation in human A549 cells expressing BAX/BAK (-/-) after 24 hrs by CelltiterGlo assay; format: functional, cell-based
[19] = molecular target: T2, Threonine--tRNA ligase 1, cytoplasmic (Mus musculus); details: MEF, 5 uM; remark: listed apart in the source
Description: Inhibition of ThRs in mouse MEF cells expressing Gcn2 (-/-) assessed as effect on Trb3 mRNA level at 5 uM by RT-PCR analysis

[20] = molecular target: T2, Threonine--tRNA ligase 1, cytoplasmic (Mus musculus); details: MEF, 5 uM; remark: listed apart in the source
Description: Inhibition of ThRs in mouse MEF cells expressing Perk (-/-) assessed as effect on phosphorylated eIF2alpha level at 5 uM by immunoblot analysis

[21] = molecular target: T2, Threonine--tRNA ligase 1, cytoplasmic (Mus musculus); details: MEF, 5 uM; remark: listed apart in the source
Description: Inhibition of ThRs in mouse MEF cells expressing Gcn2 (-/-) assessed as effect on Noxa mRNA level at 5 uM by RT-PCR analysis

[22] = molecular target: T2, Threonine--tRNA ligase 1, cytoplasmic (Mus musculus); details: MEF, 5 uM; remark: listed apart in the source
Description: Inhibition of ThRs in mouse MEF cells expressing Perk (-/-) assessed as effect on Chop level at 5 uM by immunoblot analysis

[23] = test system: MEF; assay: Inhibition of cell proliferation in mouse MEF cells expressing Pkr(-/-) after 16 hrs CelltiterGlo assay; format: functional, cell-based
[24] = test system: MEF; assay: Inhibition of cell proliferation in mouse MEF cells expressing Hri(-/-) after 16 hrs CelltiterGlo assay; format: functional, cell-based
[25] = molecular target: T2, Threonine--tRNA ligase 1, cytoplasmic (Mus musculus); details: MEF, 5 uM; remark: listed apart in the source
Description: Inhibition of ThRs in mouse MEF cells expressing Gcn2 (-/-) assessed as effect on phosphorylated eIF2alpha level at 5 uM by immunoblot analysis

[26] = test system: MEF; assay: Inhibition of cell proliferation in mouse MEF cells expressing eIF2alpha Ser51Ala mutant after 16 hrs Celltiter Glo assay; format: functional, cell-based
[27] = molecular target: T2, Threonine--tRNA ligase 1, cytoplasmic (Mus musculus); details: MEF, 5 uM; remark: listed apart in the source
Description: Inhibition of ThRs in mouse MEF cells expressing Gcn2 (-/-) assessed as effect on Puma mRNA level at 5 uM by RT-PCR analysis

Activity [1] | Activity [3] | Activity [6] | Activity [7] | Activity [8] | Activity [10] | Activity [11] | Structure (SMILES) | inhibition [2] | inhibition [4] | inhibition [5] | Activity [9] | Activity [12] | other results
inactive | inactive | inactive | inactive | inactive | inactive | inactive | CC(=O)NC/C1=C/C=C/C[C@@H]([C@@H]2CCC[C@H]2C(N)=O)OC(=O)C[C@H](O)[C@@H](C)C[C@@H](C)C[C@@H](C)C[C@H](C)[C@H]1O | inactive | inactive | inactive | Toxic | – | –
Active | inactive | Active | inactive | Active | Active | inactive | C[C@@H]1C[C@H](C)C[C@H](C)[C@@H](O)CC(=O)O[C@H]([C@@H]2CCC[C@H]2C(N)=O)C/C=C/C=C(/C#N)[C@H](O)[C@@H](C)C1 | Active | Active | Active | Toxic | inactive | –

Structure (SMILES) | Activity [1] | Activity [3] | Activity [6] | Activity [7] | Activity [8] | Activity [10] | Activity [11] | inhibition [2] | inhibition [4] | inhibition [5] | Activity [9] | Activity [12] | other results
C[C@@H]1C[C@H](C)C[C@H](C)[C@@H](O)CC(=O)O[C@H]([C@@H]2CCC[C@H]2C(=O)O)C/C=C/C=C(/C#N)[C@H](O)[C@@H](C)C1 [BORRELIDIN] | Active | Active | Active | Active | Active | Active | Active | Active | Active | Active | Toxic | inactive | inhibition [13]: inactive; inhibition [14]: inactive; inhibition [15]: inactive; inhibition [16]: inactive; inhibition [17]: inactive; inhibition [18]: inactive; inhibition [19]: inactive; inhibition [20]: inactive; inhibition [21]: inactive; inhibition [22]: inactive; inhibition [23]: inactive; inhibition [24]: inactive; inhibition [25]: inactive; inhibition [26]: Active; inhibition [27]: inactive
